Measurements from patent publication US10131652B2, “Pyrimidinyloxy benzene derivatives as herbicides” (E. I. DU PONT DE NEMOURS AND COMPANY, priority 2014, dated 2018).
Where two headings read alike, the source gives them in different places.

Tests used:
Assay in all cases: Test F pre-/postemergence plant response
Assay type in all cases: in vivo
[1] = test system: arrowleaf sida (Sida rhombifolia); conditions: Sida rhombifolia, scale 0 to 100, read-out: Plant response rating, Arrowleaf Sida
Outline: (§1)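 Values are visual ratings, where 100 is complete control and 0 is no effect, given after 14 to 21 days of greenhouse growth. Test chemicals in a non-phytotoxic, surfactant-containing solvent were sprayed on soil just after planting or on emerged seedlings at the 1- to 4-leaf stage.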

corn (Zea mays) = conditions: Zea mays, scale 0 to 100
Outline: as §1

[2] = test system: fall panicum (Panicum dichotomiflorum); conditions: Panicum dichotomiflorum, scale 0 to 100, read-out: Plant response rating, Panicum, Fall
Outline: as §1

[3] = test system: field bindweed (Convolvulus arvensis); conditions: Convolvulus arvensis, scale 0 to 100, read-out: Plant response rating, Field Bindweed
Outline: as §1

[4] = test system: goosegrass (Eleusine indica); conditions: Eleusine indica, pre-emergence, scale 0 to 100, read-out: Plant response rating, Goosegrass
Outline: as §1

[5] = test system: green foxtail (Setaria viridis); conditions: Setaria viridis, pre-emergence, Preemergence, scale 0 to 100, read-out: Plant response rating, Foxtail, Green
Outline: as §1

[6] = test system: hairy beggarticks (Bidens pilosa); conditions: Bidens pilosa, scale 0 to 100, read-out: Plant response rating, Beggarticks
Outline: as §1

[7] = test system: johnsongrass (Sorghum halepense); conditions: Sorghum halepense, pre-emergence, scale 0 to 100, read-out: Plant response rating, Johnsongrass
Outline: as §1

[8] = post-emergence, 16 g ai/ha Postemergence
[9] = post-emergence, 31 g ai/ha Postemergence
[10] = post-emergence, 62 g ai/ha Postemergence
[11] = post-emergence, 125 g ai/ha Postemergence
[12] = pre-emergence, 16 g ai/ha Preemergence
[13] = pre-emergence, 31 g ai/ha Preemergence
[14] = pre-emergence, 62 g ai/ha Preemergence
[15] = pre-emergence, 125 g ai/ha Preemergence

`Fc1cccc(Oc2ncc(Br)cn2)c1-c1cc(C(F)F)no1` [Compound 145, 5-bromo-2-[2-[3-(difluoromethyl)-5-isoxazolyl]-3-fluorophenoxy]pyrimidine] gave a pest or weed control at 16 g/ha [1, 8] of 95%, a pest or weed control at 31 g/ha [1, 9] of 95% and a pest or weed control at 62 g/ha [1, 10] of 98%. For the same compound, the pest or weed control at 125 g/ha [1, 11] was 95%, the pest or weed control at 16 g/ha [1, 12] was 65% and the pest or weed control at 31 g/ha [1, 13] was 90%. For the same compound, the pest or weed control at 62 g/ha [1, 14] was 98%, the pest or weed control at 125 g/ha [1, 15] was 98% and the Corn plant response rating (crop injury, 0 = no effect, 100 = complete kill) at 16 g/ha (corn (Zea mays); [8]) was 5%. For the same compound, the Corn plant response rating (crop injury, 0 = no effect, 100 = complete kill) at 31 g/ha (corn (Zea mays); [9]) was 10%, the Corn plant response rating (crop injury, 0 = no effect, 100 = complete kill) at 62 g/ha (corn (Zea mays); [10]) was 20% and the Corn plant response rating (crop injury, 0 = no effect, 100 = complete kill) at 125 g/ha (corn (Zea mays); [11]) was 20%. The Corn plant response rating (crop injury, 0 = no effect, 100 = complete kill) at 16 g/ha (corn (Zea mays); [12]) was 0%, the Corn plant response rating (crop injury, 0 = no effect, 100 = complete kill) at 31 g/ha (corn (Zea mays); [13]) was 0% and the Corn plant response rating (crop injury, 0 = no effect, 100 = complete kill) at 62 g/ha (corn (Zea mays); [14]) was 40%. For the same compound, the Corn plant response rating (crop injury, 0 = no effect, 100 = complete kill) at 125 g/ha (corn (Zea mays); [15]) was 60%, the pest or weed control at 16 g/ha [2, 8] was 10% and the pest or weed control at 31 g/ha [2, 9] was 10%. It also gave a pest or weed control at 62 g/ha [2, 10] of 50%, a pest or weed control at 125 g/ha [2, 11] of 80% and a pest or weed control at 16 g/ha [2, 12] of 65%. The pest or weed control at 31 g/ha [2, 13] was 80%, the pest or weed control at 125 g/ha [2, 15] was 100% and the pest or weed control at 62 g/ha ([2]; pre-emergence, Preemergence) was 95%. The pest or weed control at 16 g/ha [3, 8] was 70%, the pest or weed control at 31 g/ha [3, 9] was 75% and the pest or weed control at 62 g/ha [3, 10] was 80%. The pest or weed control at 125 g/ha [3, 11] was 90%, the pest or weed control at 16 g/ha [3, 12] was 0% and the pest or weed control at 31 g/ha [3, 13] was 50%. For the same compound, the pest or weed control at 62 g/ha [3, 14] was 65%, the pest or weed control at 125 g/ha [3, 15] was 95% and the pest or weed control at 16 g/ha ([4]; 16 g ai/ha Preemergence) was 0%. For the same compound, the pest or weed control at 31 g/ha ([4]; 31 g ai/ha Preemergence) was 70%, the pest or weed control at 125 g/ha ([4]; 125 g ai/ha Preemergence) was 95% and the pest or weed control at 62 g/ha ([4]; Preemergence) was 80%. For the same compound, the pest or weed control at 16 g/ha ([5]; 16 g ai/ha) was 5%, the pest or weed control at 31 g/ha ([5]; 31 g ai/ha) was 40% and the pest or weed control at 125 g/ha ([5]; 125 g ai/ha) was 100%. For the same compound, the pest or weed control at 62 g/ha [5] was 100%, the pest or weed control at 16 g/ha [6, 8] was 55% and the pest or weed control at 31 g/ha [6, 9] was 50%. The pest or weed control at 62 g/ha [6, 10] was 65%, the pest or weed control at 125 g/ha [6, 11] was 70% and the pest or weed control at 16 g/ha [6, 12] was 0%. The pest or weed control at 31 g/ha [6, 13] was 35%, the pest or weed control at 62 g/ha [6, 14] was 30% and the pest or weed control at 125 g/ha [6, 15] was 25%. It also gave a pest or weed control at 16 g/ha ([7]; 16 g ai/ha Preemergence) of 0%, a pest or weed control at 31 g/ha ([7]; 31 g ai/ha Preemergence) of 20% and a pest or weed control at 125 g/ha ([7]; 125 g ai/ha Preemergence) of 85%. For the same compound, the pest or weed control at 62 g/ha ([7]; Preemergence) was 100%.
